Assay [1] has as its system Salmonella enterica subsp. enterica. Description: Antimicrobial activity against multidrug-resistant Salmonella enterica Serovar Typhi isolate A102 harboring DNA gyrase A S83Y mutation by disk diffusion method in presence of plasmid mediated quinolone-resistant gene qnrA and qnrS. Type of assay: functional, Salmonella enterica subsp. enterica serovar Typhi. (In agar diffusion tests the substance spreads into inoculated agar from a disc or well.)

Assay [2] shares this test system. Description: Antimicrobial activity against Salmonella enterica Serovar Typhi isolate C152 harboring DNA gyrase A S83Y mutation by disk diffusion method in presence of plasmid mediated quinolone-resistant gene qnrA and qnrS. Type of assay: functional, Salmonella enterica subsp. enterica serovar Typhi.
Assay [3] shares this test system. The assay can be described thus: Antimicrobial activity against multidrug-resistant Salmonella enterica Serovar Typhi isolate CT29 harboring DNA gyrase A S83F mutation by disk diffusion method in presence of plasmid mediated quinolone-resistant gene qnrA and qnrS. Type of assay: functional, Salmonella enterica subsp. enterica serovar Typhi.
Assay [4] shares this test system. Description: Antimicrobial activity against multidrug-resistant Salmonella enterica Serovar Typhi isolate nar 107 harboring DNA gyrase A S83F mutation by disk diffusion method in presence of plasmid mediated quinolone-resistant gene qnrA and qnrS. In kind it is functional, Salmonella enterica subsp. enterica serovar Typhi.
For assay [5] the test system is unchanged. Description: Antimicrobial activity against Salmonella enterica Serovar Typhi isolate ipt 2 harboring DNA gyrase A D87G mutation by disk diffusion method in presence of plasmid mediated quinolone-resistant gene qnrA and qnrS. Type of assay: functional, Salmonella enterica subsp. enterica serovar Typhi.
Assay [6] shares this test system. Description: Antimicrobial activity against multidrug-resistant Salmonella enterica Serovar Typhi isolate nar 45 harboring DNA gyrase A S83F mutation by disk diffusion method. In kind it is functional, Salmonella enterica subsp. enterica serovar Typhi.
Assay [7] shares this test system. The assay can be described thus: Antimicrobial activity against multidrug-resistant Salmonella enterica Serovar Typhi isolate nar 46 harboring DNA gyrase A D87G mutation by disk diffusion method. Type of assay: functional, Salmonella enterica subsp. enterica serovar Typhi.
Assay [8] has the same test system. The assay can be described thus: Antimicrobial activity against multidrug-resistant Salmonella enterica Serovar Typhi isolate nar 50 harboring DNA gyrase A S83F mutation by disk diffusion method. Type of assay: functional, Salmonella enterica subsp. enterica serovar Typhi.
For assay [9] the test system is unchanged. Description: Antimicrobial activity against multidrug-resistant Salmonella enterica Serovar Typhi isolate DT2 harboring DNA gyrase A S83F mutation by disk diffusion method in presence of plasmid mediated quinolone-resistant gene qnrA and qnrS. Type of assay: functional, Salmonella enterica subsp. enterica serovar Typhi.
Assay [10] has the same test system. The assay can be described thus: Antimicrobial activity against multidrug-resistant Salmonella enterica Serovar Typhi isolate DT18 harboring DNA gyrase A S83F and D87G mutation by disk diffusion method. Type of assay: functional, Salmonella enterica subsp. enterica serovar Typhi.
For assay [11] the test system is unchanged. Description: Antimicrobial activity against multidrug-resistant Salmonella enterica Serovar Typhi isolate DT40 harboring DNA gyrase A S83F mutation by disk diffusion method. In kind it is functional, Salmonella enterica subsp. enterica serovar Typhi.
For assay [12] the test system is unchanged. The assay can be described thus: Antimicrobial activity against multidrug-resistant Salmonella enterica Serovar Typhi isolate DT47 harboring DNA gyrase A S83F mutation by disk diffusion method in presence of plasmid mediated quinolone-resistant gene qnrA and qnrS. Type of assay: functional, Salmonella enterica subsp. enterica serovar Typhi.
For assay [13] the test system is unchanged. The assay can be described thus: Antimicrobial activity against multidrug-resistant Salmonella enterica Serovar Typhi isolate AG15 harboring DNA gyrase A S83F mutation by disk diffusion method. Type of assay: functional, Salmonella enterica subsp. enterica serovar Typhi.
For assay [14] the test system is unchanged. Description: Antimicrobial activity against multidrug-resistant Salmonella enterica Serovar Typhi isolate HTD 798 harboring DNA gyrase A S83F mutation by disk diffusion method. Type of assay: functional, Salmonella enterica subsp. enterica serovar Typhi.
Assay [15] has the same test system. The assay can be described thus: Antimicrobial activity against multidrug-resistant Salmonella enterica Serovar Typhi isolate BL 3769 harboring DNA gyrase A S83F mutation by disk diffusion method in presence of plasmid mediated quinolone-resistant gene qnrA and qnrS. In kind it is functional, Salmonella enterica subsp. enterica serovar Typhi.
Assay [16] shares this test system. The assay can be described thus: Antimicrobial activity against multidrug-resistant Salmonella enterica Serovar Typhi isolate HTD 798 harboring DNA gyrase A S83F mutation assessed as complete cell killing at 4 times MIC after 4 hrs by time-kill analysis. Type of assay: functional, organism-based.
For assay [17] the test system is unchanged. The assay can be described thus: Antimicrobial activity against Salmonella enterica Serovar Typhi isolate CT144 harboring DNA gyrase A D87G mutation assessed as complete cell killing at 4 times MIC after 4 hrs by time-kill analysis. In kind it is functional, organism-based.
Assay [18] has the same test system. Description: Antimicrobial activity against Salmonella enterica Serovar Typhi isolate CT76 harboring wild type DNA gyrase A by time-kill analysis. Type of assay: functional, organism-based.
Assay [19] has the same test system. The assay can be described thus: Antimicrobial activity against multidrug-resistant Salmonella enterica Serovar Typhi isolate HTD 798 harboring DNA gyrase A S83F mutation assessed as decrease in viable count at 4 times MIC after 4 hrs by time-kill analysis. Type of assay: functional, organism-based.
The test system is the same in assay [20]. The assay can be described thus: Antimicrobial activity against Salmonella enterica Serovar Typhi isolate CT144 harboring DNA gyrase A D87G mutation assessed as decrease in viable count at 4 times MIC after 4 hrs by time-kill analysis. Type of assay: functional, organism-based.
The test system is the same in assay [21]. The assay can be described thus: Antimicrobial activity against multidrug-resistant Salmonella enterica Serovar Typhi isolate DT18 harboring DNA gyrase A S83F and D87G mutation assessed as decrease in viable count at 4 times MIC after 4 hrs by time-kill analysis. In kind it is functional, organism-based.
The test system is the same in assay [22]. Description: Antimicrobial activity against multidrug-resistant Salmonella enterica Serovar Typhi isolate DT18 harboring DNA gyrase A S83F and D87G mutation assessed as decrease in viable count at 8 times MIC after 4 hrs by time-kill analysis. In kind it is functional, organism-based.
For assay [23] the test system is unchanged. The assay can be described thus: Antimicrobial activity against multidrug-resistant Salmonella enterica Serovar Typhi isolate DT18 harboring DNA gyrase A S83F and D87G mutation assessed as decrease in viable count at 16 times MIC after 4 hrs by time-kill analysis. Type of assay: functional, organism-based.
Assay [24] shares this test system. The assay can be described thus: Antimicrobial activity against Salmonella enterica Serovar Typhi isolate CT76 harboring wild type DNA gyrase A assessed as decrease in bacterial population at 4 times MIC after 30 mins by time-kill analysis. In kind it is functional, organism-based.
Assay [25] has the same test system. The assay can be described thus: Antimicrobial activity against multidrug-resistant Salmonella enterica Serovar Typhi isolate HTD 798 harboring DNA gyrase A S83F mutation assessed as decrease in bacterial population at 4 times MIC after 30 mins by time-kill analysis. In kind it is functional, organism-based.
Assay [26] shares this test system. The assay can be described thus: Antimicrobial activity against Salmonella enterica Serovar Typhi isolate CT144 harboring DNA gyrase A D87G mutation assessed as decrease in bacterial population at 4 times MIC after 30 mins by time-kill analysis. Type of assay: functional, organism-based.
Assay [27] shares this test system. The assay can be described thus: Antimicrobial activity against Salmonella enterica Serovar Typhi isolate CT76 harboring wild type DNA gyrase A assessed as complete cell killing at 4 times MIC after 6 hrs by time-kill analysis. In kind it is functional, organism-based.
Assay [28] has the same test system. The assay can be described thus: Antimicrobial activity against multidrug-resistant Salmonella enterica Serovar Typhi isolate HTD 798 harboring DNA gyrase A S83F mutation assessed as complete cell killing at 4 times MIC after 6 hrs by time-kill analysis. Type of assay: functional, organism-based.
For assay [29] the test system is unchanged. Description: Antimicrobial activity against Salmonella enterica Serovar Typhi isolate CT144 harboring DNA gyrase A D87G mutation assessed as complete cell killing at 4 times MIC after 6 hrs by time-kill analysis. Type of assay: functional, organism-based.

Values after ≈ are worked out from the molar mass of the structure shown. Active and inactive are the calls of the source.

Usually MIC stands for the smallest concentration in the dilution series that meets the test's criterion for growth inhibition. Turning to `O=C(O)c1cn(C2CC2)c2cc(N3CCNCC3)c(F)cc2c1=O` [CIPROFLOXACIN], the MIC in [1] was determined as 0.25 mg/L; in [2], 0.25 mg/L; in assay [3], 0.5 mg/L; in [4], 0.25 mg/L; in [5], 0.25 mg/L; in assay [6] it was 0.5 mg/L (≈ 1.51 µM). Besides, the minimal inhibitory concentration (MIC) in assay [7] worked out at 0.06 mg/L (≈ 0.181 µM); in [8], 0.5 mg/L (≈ 1.51 µM); in assay [9], 0.5 mg/L; in assay [10] it was 0.5 mg/L (≈ 1.51 µM); in assay [11] it was 0.38 mg/L (≈ 1.15 µM); in assay [12], 0.5 mg/L. The MIC in [13] worked out at 0.5 mg/L (≈ 1.51 µM); in [14], 0.38 mg/L (≈ 1.15 µM); in assay [15], 0.25 mg/L.

As for `CCn1cc(C(=O)O)c(=O)c2ccc(C)nc21` [NALIDIXIC ACID], the MIC in assay [1] is > 256 mg/L; in [2] it was > 256 mg/L; in assay [3], 256 mg/L; in assay [4], 256 mg/L; in [5] it was 256 mg/L; in [6] it was 256 mg/L (≈ 1100 µM). Besides, the MIC in assay [7] is 64 mg/L (≈ 276 µM); in [8], 256 mg/L (≈ 1100 µM); in assay [9] it was > 256 mg/L; in [10] it was > 256 mg/L; in [11] it was > 256 mg/L; in assay [12] it was 128 mg/L. Moreover, the MIC in assay [13], in assay [14] and in assay [15] was > 256 mg/L in each case.

As for `CC1COc2c(N3CCN(C)CC3)c(F)cc3c(=O)c(C(=O)O)cn1c23` (centres undefined) [OFLOXACIN], the outcome in [16], in assay [17] and in [21] was inactive. The MIC in [1] is 0.5 mg/L; in [2] it was 0.5 mg/L; in [3], 1 mg/L; in [4], 1 mg/L; in assay [5] it was 2 mg/L; in assay [6], 0.5 mg/L (≈ 1.38 µM). The MIC in assay [7] is 0.5 mg/L (≈ 1.38 µM); in assay [8], 1 mg/L (≈ 2.77 µM); in assay [9], 2 mg/L; in assay [10] it was 2 mg/L (≈ 5.53 µM); in assay [11], 0.5 mg/L (≈ 1.38 µM); in assay [12], 1 mg/L. For the same compound, the results for the minimum inhibitory concentration (MIC) in assay [13], in assay [14] and in assay [15] were 1.5 mg/L (≈ 4.15 µM), 1 mg/L (≈ 2.77 µM) and 0.5 mg/L, respectively. The result in assay [18], in assay [19] and in assay [20] was Active.

On to `COc1c(N2CCNC(C)C2)c(F)cc2c(=O)c(C(=O)O)cn(C3CC3)c12` (centres undefined) [GATIFLOXACIN], for which the result in assay [22], in assay [23], in assay [24], in [25], in assay [26] and in [27] was Active. Also, the result in assay [28] and in assay [29] was Active. The MIC in assay [1] was determined as 0.19 mg/L; in assay [2], 0.19 mg/L; in [3], 0.094 mg/L; in assay [4], 0.125 mg/L; in [5], 0.125 mg/L; in assay [6] it was 0.125 mg/L (≈ 0.333 µM). Also, the MIC worked out at 0.032 mg/L (≈ 0.0852 µM) in assay [7]; 0.094 mg/L (≈ 0.25 µM) in assay [8]; 0.125 mg/L in [9]; 0.25 mg/L (≈ 0.666 µM) in assay [10]; 0.125 mg/L (≈ 0.333 µM) in [11]; 0.125 mg/L in assay [12]. In addition, the MIC in [13] came to 0.13 mg/L (≈ 0.346 µM); in [14], 0.13 mg/L (≈ 0.346 µM); in assay [15], 0.19 mg/L.

Values taken from ChEMBL document CHEMBL1152457, “Antimicrobial drug resistance of Salmonella enterica serovar typhi in asia and molecular mechanism of reduced susceptibility to the fluoroquinolones” (2007).
